Data on two compounds can be found in US12296018B2, “Albumin binding peptide-drug (AlBiPeD) conjugates and methods of making and using same” (priority 2018, dated 2025).

Data set [1] has as its system MIA PaCa-2 pancreatic tumor xenografts. Description: In vivo tumor regression, MIA PaCa-2 xenograft model. More on the design: species or system nude BALB/c mice. As to the method: (§1) In vivo tumor regression For in vivo tumor implantation, C26 cells at 5×10^5 cells in 30 μL Minimum Essential Medium (MEM) (Invitrogen, Carlsbad, CA) and MIA PaCa-2 cells at 2×10^6 cells in 50 μL 10:90 v/v MEM: Matrigel matrix (Corning Inc, Corning, New York) were inoculated in the right flank of normal and athymic nude BALB/c mice, respectively. Tumor cells were allowed to grow until the tumor volume, calculated as π/6×length×width^2, reached 75-100 mm^3 for C26 tumors and 100-125 mm^3 for MIA PaCa-2 tumors. Tumor bearing mice were then treated with ABD-Dox at 10 and 20 mg Dox Equiv.kg^−1 BW, AlDox at 20 mg Dox Equiv.kg^−1 BW, and free Dox at 10 mgkg^−1 BW. Tumor volumes and body weights were monitored for 100 days after treatment and mice displaying excessive tumor volume (>[…]), body weight loss (>15%), or ill health were euthanized. Tumor growth and survival data were analyzed by GraphPad Prism software. Survival curves were generated with the Kaplan-Meier method and compared with the log-rank (Mantel-Cox) test. Tumor growth data were compared with a paired one-way ANOVA followed by Tukey-Kramer (Tukey's) post-hoc test. P<0.05 was considered as statistically significant.
(§2) For in vivo tumor regression studies, a single dose of ABD-Dox was injected via tail vein at 10 mg Dox Equiv.kg^−1 BW (MTD of free Dox) and 20 mg Dox Equiv.kg^−1 BW (MTD of ABD-Dox) in separate cohorts of BALB/c mice with s.c. C26 tumors or nude mice with s.c. MIA Paca-2 tumors. Free Dox was injected at its MTD of 10 mgkg-1 BW, and AlDox was injected at 20 mg Dox Equiv.kg^−1 BW, a dose that was reported to be safe in previous studies. All animals were injected when the tumors were 75-100 mm; in size for C26 tumors and 100-125 mm^3 for MIA PaCa-2 tumors.

The test system of data set [2] is C26 colon carcinoma tumors. Description: In vivo tumor regression, syngeneic C26 model. More on the design: species or system BALB/c mice. The conditions noted are these: 20 mg Dox Equiv.kg^−1 BW. Here is the method: as §1, §2
A short description of the next data set: Aqueous solubility. In kind it is physicochemical. Here is the method: To remove the ELP160 tag, the KEKE-ELP160-srt-ABD-Dox conjugate was buffer exchanged into sortase reaction buffer, and was reacted with (His)6-sortase A-ELP40 in the presence of a 50 fold molar excess of triglycine (FIG. 2A). The efficiency of the sortase reaction, defined as the percent conversion of ELP-ABD-Dox substrate to ABD-Dox, was determined by size exclusion HPLC and was calculated to be ≥85% (FIG. 3A). The ABD-Dox product was then separated from (His)6-sortase A-ELP40, the cleaved KEKE-ELP160 tag, and unreacted KEKE-ELP160-srt-ABD-Dox in the sortase reaction solution by preparative size exclusion chromatography (SEC). The number of Dox molecules conjugated per ABD (Dox/ABD molar ratio) was measured before the sortase reaction by dissolving the lyophilized KEKE-ELP160-srt-ABD-Dox conjugate in PBS and calculating the moles of KEKE-ELP160-srt-ABD-Dox and Dox gravimetrically and spectrophotometrically at 488 nm, respectively. 3-4 Dox molecules were attached to each KEKE-ELP160-srt-ABD-(CGG)8. However, following removing the ELP160 tag, the resulting ABD-Dox conjugate was too hydrophobic and insoluble in pH 7.4 PBS because of the high number of conjugated Dox molecules. […] Formulation of AlDox in acidic pH, however, is undesirable as it can trigger the premature, in vitro degradation of the hydrazone bond between Dox and EMCH, converting AlDox back to free Dox.

A short description of data set [3]: Intravenous pharmacokinetics in healthy BALB/c mice. Here is the method: Pharmacokinetics and biodistribution Pharmacokinetics and biodistribution experiments were performed to study the concentration of ABD-Dox in blood and tissues over time following intravenous (i.v.) administration. For the pharmacokinetic study, ABD-Dox and Dox in PBS and AlDox in 10 mM sodium phosphate, 5% D-(+)-glucose, pH 5.8 were injected at 5 mg Dox Equiv. per kg of body weight (BW) into healthy BALB/c mice. 10 μL blood samples were collected at 40 s, 15 min and 30 min, and 2, 4, 8, 24, 48, 72 and 96 h post injection and were diluted into heparinized PBS (1 kUmL^−1), and centrifuged at 4,000 rcf, 10 min, 4° C. to collect the plasma. 10 μL of the plasma samples were then diluted in 490 μL of acidified isopropanol (0.075 M HCl, 10% water) and incubated overnight at 4° C. For the biodistribution study, ABD-Dox and Dox in PBS were injected at 5 mg Dox Equiv.kg^−1 BW into C26 tumor-bearing BALB/c mice. At 2 h, 24 h, and 72 h post-injection, mice were sacrificed and tumor, heart, lung, liver, spleen, kidney and muscle tissues were dissected, weighed, homogenized in acidified isopropanol using a Mini-Beadbeater (Biospec, Bartlesville, OK) with 2 mm diameter zirconia beads for 1-2 min, and were incubated overnight at 4° C. Following overnight incubation in acidified isopropanol, plasma and tissue samples were centrifuged at 16,000 rcf, 4° C. for 10 min and the supernatants were loaded onto black 96-well plates in duplicate and the Dox fluorescence was measured using on a Victor3 microplate reader (Perkin Elmer, Waltham, MA) with fluorescence excitation at 485 nm and emission at 590 nm. Tissues were also dissected from three untreated mice, processed in the same manner, serially diluted, and loaded on the plates to prepare a standard curve of fluorescence intensity versus the weight for each tissue from which the background tissue fluorescence was calculated and subtracted for each sample. Serial dilution of free Dox in acidified isopropanol was used as standard to quantify the Dox concentration as […] per liter of plasma (μM) and as the percent of the injected dose per gram (% ID g^−1) in the tumor and other tissues. Plasma concentrations of Dox Equiv. of ABD-Dox versus time were fit to a two-compartment model using SAAM II software (SAAM Institute, Seattle, WA) and the elimination half-life and the area-under-curve were computed. The tissue concentration of Dox. Equiv. of ABD-Dox and free Dox at each time point were compared in GraphPad Prism software (GraphPad, San Diego, CA) by Student's t-test with P<0.05 considered statistically significant.

The subject of data set [4] is C26 murine colon carcinoma cells. Description: In vitro cytotoxicity (MTS, 72 h) C26. In kind it is cell-based. The settings on record: 72 h incubation, Dox Equiv. concentration. As to the method:
(§3) In vitro cytotoxicity C26 murine colon carcinoma cells and three different pancreatic cancer cell lines, BxPC-3, AsPC-1, and MIA PaCa-2, were used to study the in vitro cytotoxicity of ABD-DOX and Dox. Cells were cultured and grown as monolayers at 37° C. with C02 in a humidified incubator and were passaged at ˜80% confluency using 0.05% trypsin-EDTA (Invitrogen, Carlsbad, CA). C26, BxPC-3, AsPC-1, and MIA PaCa-2 cells were seeded in 96-well plates (5,000 cells/well) and incubated overnight. Three-fold serial dilutions of drug were then added to the wells in triplicate and also to control wells (media with no cells) to correct for the background Dox absorbance. After 72 h treatment, 20 μL MTS reagent was added to each well and was incubated for 3 h at 37° C., and the absorbance at 490 nm was measured using a Victor3 plate reader (Perkin Elmer, Boston, MA). Cell viability (%) was defined as the percentage of the absorbance of the drug-treated cells relative to buffer-treated cells and IC50 values were determined using logistic non-linear regression analysis with GraphPad Prism software. The IC50 was defined as the Dox Equiv. concentration of formulations resulting in 50% growth inhibition compared with a negative control, buffer-treated cells.

Data set [5] in a line: Tissue biodistribution in C26 tumor-bearing BALB/c mice. In kind it is in vivo. From the text:
The tissue concentration of Dox.

Data set [6] in a line: Dose-escalation study, maximum tolerated dose. The conditions noted are these: i.v., healthy BALB/c mice, two weeks; no mortality or body weight loss greater than 15%. In kind it is in vivo, BALB/c mice. As to the method:
With these encouraging biodistribution results in hand, tumor regression in vivo by ABD-Dox was investigated. The maximum tolerated dose (MTD) of ABD-Dox was established in healthy mice. A range of doses of ABD-Dox were injected into healthy BALB/c mice, and body weight loss and mortality of the mice were monitored over a two-week period to assess systemic toxicity. […] Using these criteria, the MTD was determined to be 20 mg Dox Equiv.kg^−1 for ABD-Dox (FIG. 7) and 10 mgkg^−1 BW MTD of free Dox (FIG. 8).

In another data set the test system is MIA PaCa-2 cells. Description: In vitro cytotoxicity (MTS, 72 h) MIA PaCa-2. In kind it is cell-based, human. The conditions noted are these: 72 h incubation, Dox Equiv. concentration. As to the method:
as §3

Data set [7] relates to BxPC-3 pancreatic cancer cells. Description: In vitro cytotoxicity (MTS, 72 h) BxPC-3. The conditions noted are these: 72 h incubation, Dox Equiv. concentration. In kind it is cell-based, human. As to the method:
as §3

The test system of data set [8] is AsPC-1 pancreatic cancer cells. Description: In vitro cytotoxicity (MTS, 72 h) AsPC-1. In kind it is cell-based, human. The settings on record: 72 h incubation, Dox Equiv. concentration. Here is the method:
as §3

Structures are written as SMILES. Values joined by “and” are separate entries in the source; they are usually repeats but may differ in a detail not shown here. Identical values can stand only once.

Regarding `COc1cccc2c1C(=O)c1c(O)c3c(c(O)c1C2=O)C[C@@](O)(/C(CO)=N/NC(=O)CCCCCN1C(=O)C=CC1=O)C[C@@H]3O[C@H]1C[C@H](N)[C@H](O)[C@H](C)O1` [AlDox, Aldoxorubicin, reference compound], the “mice showing tumor disappearance” value in data set [1] (by day 15 after treatment, 20 mg Dox Equiv.kg^−1 BW) was determined as 50%. Besides, in data set [1] (by day 50, 20 mg Dox Equiv.kg^−1 BW), the “tumor recurrence in tumor-eradicated mice” value is reported as “all”. In data set [2], the “eradication of C26 tumors” value is listed as “incomplete eradication”, the “mice that did not survive over the 100-day course of study” value is reported as 25% and the “recurrence of the primary tumor” value was “without recurrence of the primary tumor in any mice”. Also, the “concentration at which acidic pH is required for solubility in aqueous solutions” value in “Aqueous solubility” is recorded as at least 0.5 mg Dox Equiv.mL^−1. In addition, in the data set “Aqueous solubility” (physiological pH), the “solubility” value is given as “poor solubility”.
As for `COc1cccc2c1C(=O)c1c(O)c3c(c(O)c1C2=O)C[C@@](O)(C(=O)CO)C[C@@H]3O[C@H]1C[C@H](N)[C@H](O)[C@H](C)O1` [free Dox, Doxorubicin, reference compound], the “concentration in blood relative to initial concentration” value in data set [3] (15 min after i.v. injection) is given as “less than 2%”. In addition, the “in vivo elimination half-life” value in data set [3] (i.v., 5 mg Dox Equiv. per kg BW) was “on the order of minutes”. Also, the IC50 in data set [4] was 500 nM and 510 nM; in the data set on MIA PaCa-2 cells, 40 nM; in data set [7] it was 400 nM; in [8], 2500 nM. Further, in data set [5] (2 h after administration), the “concentration of Dox equivalent in tumor” value is 1.6 % ID.g^−1. Further, the minimum tumor accumulation in data set [5] (over 72 h) came to 0.07 % ID.g^−1. Also, the “maximum tolerated dose (MTD)” value in data set [6] amounted to 10 mgkg^−1 BW.
